Measured values: ChEMBL document CHEMBL5137065, “Recent Advances with KDM4 Inhibitors and Potential Applications” (J Med Chem, 2022)

Assays:
[1] = molecular target: T1, Lysine-specific demethylase 2A (Homo sapiens, UniProt Q9Y2K7); experiment: Inhibition of KDM2A in human MIA PaCa-2 cells assessed as induction of H3K36me2 measured by immunofluorescence assay; assay type: cell-based
T1 sequence (Q9Y2K7 whole entry): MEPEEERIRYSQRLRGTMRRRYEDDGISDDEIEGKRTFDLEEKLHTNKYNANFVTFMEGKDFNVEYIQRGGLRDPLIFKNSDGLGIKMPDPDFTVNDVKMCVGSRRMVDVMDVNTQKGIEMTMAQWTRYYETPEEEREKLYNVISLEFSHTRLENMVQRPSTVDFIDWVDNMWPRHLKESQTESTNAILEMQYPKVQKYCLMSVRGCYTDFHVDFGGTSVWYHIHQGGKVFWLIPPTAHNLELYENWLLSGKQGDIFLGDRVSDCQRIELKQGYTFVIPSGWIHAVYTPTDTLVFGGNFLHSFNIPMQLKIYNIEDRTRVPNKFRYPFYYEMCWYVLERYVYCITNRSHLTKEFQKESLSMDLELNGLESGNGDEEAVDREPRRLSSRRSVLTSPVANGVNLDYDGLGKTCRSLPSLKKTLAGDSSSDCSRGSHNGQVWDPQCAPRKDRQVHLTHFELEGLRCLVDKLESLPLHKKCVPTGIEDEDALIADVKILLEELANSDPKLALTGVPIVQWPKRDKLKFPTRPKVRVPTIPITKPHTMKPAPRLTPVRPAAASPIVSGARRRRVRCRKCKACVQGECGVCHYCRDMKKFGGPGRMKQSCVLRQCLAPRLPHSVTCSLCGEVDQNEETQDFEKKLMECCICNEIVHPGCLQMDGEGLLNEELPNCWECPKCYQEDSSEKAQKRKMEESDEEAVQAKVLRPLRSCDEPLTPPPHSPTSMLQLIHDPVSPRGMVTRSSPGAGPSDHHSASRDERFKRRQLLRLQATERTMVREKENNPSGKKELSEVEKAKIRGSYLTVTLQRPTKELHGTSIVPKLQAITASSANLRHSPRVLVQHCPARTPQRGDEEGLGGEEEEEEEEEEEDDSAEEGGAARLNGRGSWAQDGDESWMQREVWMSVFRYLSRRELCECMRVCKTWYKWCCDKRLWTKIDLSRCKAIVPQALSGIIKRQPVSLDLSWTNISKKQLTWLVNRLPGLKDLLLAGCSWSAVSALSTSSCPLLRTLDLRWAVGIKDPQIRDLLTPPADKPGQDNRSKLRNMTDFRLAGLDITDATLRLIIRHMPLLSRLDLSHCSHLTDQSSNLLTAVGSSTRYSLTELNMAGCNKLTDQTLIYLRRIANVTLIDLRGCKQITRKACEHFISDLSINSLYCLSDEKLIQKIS

[2] = molecular target: T2, Lysine-specific demethylase 4A (Homo sapiens, UniProt O75164)
T2 sequence (O75164 whole entry): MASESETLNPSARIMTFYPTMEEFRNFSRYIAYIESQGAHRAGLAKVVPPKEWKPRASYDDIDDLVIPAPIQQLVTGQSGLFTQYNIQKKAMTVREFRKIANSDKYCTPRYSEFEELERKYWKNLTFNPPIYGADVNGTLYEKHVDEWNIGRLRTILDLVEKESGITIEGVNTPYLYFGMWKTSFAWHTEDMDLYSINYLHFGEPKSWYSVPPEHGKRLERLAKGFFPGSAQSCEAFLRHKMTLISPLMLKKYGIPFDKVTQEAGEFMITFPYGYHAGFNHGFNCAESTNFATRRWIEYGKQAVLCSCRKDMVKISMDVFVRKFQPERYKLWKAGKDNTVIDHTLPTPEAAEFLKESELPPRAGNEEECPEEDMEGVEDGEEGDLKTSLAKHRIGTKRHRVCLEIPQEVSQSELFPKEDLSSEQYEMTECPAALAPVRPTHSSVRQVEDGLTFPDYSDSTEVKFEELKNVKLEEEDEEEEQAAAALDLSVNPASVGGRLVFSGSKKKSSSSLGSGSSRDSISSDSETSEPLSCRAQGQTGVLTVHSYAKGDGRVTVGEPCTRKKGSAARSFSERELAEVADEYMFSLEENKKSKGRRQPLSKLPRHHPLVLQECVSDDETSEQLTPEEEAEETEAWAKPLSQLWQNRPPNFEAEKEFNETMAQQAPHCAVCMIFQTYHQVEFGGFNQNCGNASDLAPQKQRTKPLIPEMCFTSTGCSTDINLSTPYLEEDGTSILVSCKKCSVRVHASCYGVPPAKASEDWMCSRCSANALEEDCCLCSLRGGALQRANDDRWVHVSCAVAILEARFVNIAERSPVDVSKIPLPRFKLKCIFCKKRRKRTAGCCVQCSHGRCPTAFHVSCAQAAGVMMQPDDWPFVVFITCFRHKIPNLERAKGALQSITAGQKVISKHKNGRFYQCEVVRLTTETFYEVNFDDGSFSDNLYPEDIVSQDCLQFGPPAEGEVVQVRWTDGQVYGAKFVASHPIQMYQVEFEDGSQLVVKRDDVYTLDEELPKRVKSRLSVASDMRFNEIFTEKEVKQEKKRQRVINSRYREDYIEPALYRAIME

[3] = molecular target: T2, Lysine-specific demethylase 4A; remark: listed apart in the source
[4] = Permeability of compound in human Caco-2 cells; assay type: ADME, cell-based; conditions: read-out: permeability
[5] = molecular target: T2, Lysine-specific demethylase 4A; experiment: Inhibition of binding of H3K4Me3 to KDM4A tudor domain (unknown origin) measured by NanoBRET-based cellular proximity assay
[6] = molecular target: T3, Lysine-specific demethylase 4B (Homo sapiens, UniProt O94953); experiment: Inhibition of human KDM4B measured by AlphaLISA assay
T3 sequence (O94953 whole entry): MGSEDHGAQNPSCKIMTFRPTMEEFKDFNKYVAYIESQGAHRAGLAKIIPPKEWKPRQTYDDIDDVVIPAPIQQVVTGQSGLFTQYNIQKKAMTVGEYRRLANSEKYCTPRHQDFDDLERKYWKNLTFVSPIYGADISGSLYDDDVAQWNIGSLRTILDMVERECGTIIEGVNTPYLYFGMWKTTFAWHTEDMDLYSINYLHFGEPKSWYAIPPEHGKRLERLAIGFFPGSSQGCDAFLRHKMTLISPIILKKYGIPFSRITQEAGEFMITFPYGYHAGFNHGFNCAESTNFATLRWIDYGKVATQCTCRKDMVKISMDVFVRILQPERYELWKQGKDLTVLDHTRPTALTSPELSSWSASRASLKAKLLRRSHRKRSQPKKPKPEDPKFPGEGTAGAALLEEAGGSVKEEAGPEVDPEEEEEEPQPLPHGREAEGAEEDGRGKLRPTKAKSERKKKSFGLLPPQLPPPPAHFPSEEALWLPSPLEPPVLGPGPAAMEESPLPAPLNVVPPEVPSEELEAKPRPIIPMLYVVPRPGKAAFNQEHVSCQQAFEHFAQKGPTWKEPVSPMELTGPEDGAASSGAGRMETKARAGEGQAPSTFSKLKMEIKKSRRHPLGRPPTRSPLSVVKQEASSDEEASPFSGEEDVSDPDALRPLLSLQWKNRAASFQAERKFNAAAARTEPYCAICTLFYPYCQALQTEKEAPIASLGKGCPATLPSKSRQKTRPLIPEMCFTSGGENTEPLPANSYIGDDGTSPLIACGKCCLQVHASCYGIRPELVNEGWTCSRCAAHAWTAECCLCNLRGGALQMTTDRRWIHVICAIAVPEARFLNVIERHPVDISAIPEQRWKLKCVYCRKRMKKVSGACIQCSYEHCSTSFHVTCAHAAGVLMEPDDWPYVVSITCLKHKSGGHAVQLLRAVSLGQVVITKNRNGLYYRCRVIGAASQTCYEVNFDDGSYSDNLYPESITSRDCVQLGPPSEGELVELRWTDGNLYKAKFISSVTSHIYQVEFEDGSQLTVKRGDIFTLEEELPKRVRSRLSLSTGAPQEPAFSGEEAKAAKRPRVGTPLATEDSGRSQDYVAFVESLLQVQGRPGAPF

[7] = molecular target: T4, Lysine-specific demethylase 4C (Homo sapiens, UniProt Q9H3R0); experiment: Inhibition of human KDM4C measured by AlphaLISA assay
T4 sequence (Q9H3R0 whole entry): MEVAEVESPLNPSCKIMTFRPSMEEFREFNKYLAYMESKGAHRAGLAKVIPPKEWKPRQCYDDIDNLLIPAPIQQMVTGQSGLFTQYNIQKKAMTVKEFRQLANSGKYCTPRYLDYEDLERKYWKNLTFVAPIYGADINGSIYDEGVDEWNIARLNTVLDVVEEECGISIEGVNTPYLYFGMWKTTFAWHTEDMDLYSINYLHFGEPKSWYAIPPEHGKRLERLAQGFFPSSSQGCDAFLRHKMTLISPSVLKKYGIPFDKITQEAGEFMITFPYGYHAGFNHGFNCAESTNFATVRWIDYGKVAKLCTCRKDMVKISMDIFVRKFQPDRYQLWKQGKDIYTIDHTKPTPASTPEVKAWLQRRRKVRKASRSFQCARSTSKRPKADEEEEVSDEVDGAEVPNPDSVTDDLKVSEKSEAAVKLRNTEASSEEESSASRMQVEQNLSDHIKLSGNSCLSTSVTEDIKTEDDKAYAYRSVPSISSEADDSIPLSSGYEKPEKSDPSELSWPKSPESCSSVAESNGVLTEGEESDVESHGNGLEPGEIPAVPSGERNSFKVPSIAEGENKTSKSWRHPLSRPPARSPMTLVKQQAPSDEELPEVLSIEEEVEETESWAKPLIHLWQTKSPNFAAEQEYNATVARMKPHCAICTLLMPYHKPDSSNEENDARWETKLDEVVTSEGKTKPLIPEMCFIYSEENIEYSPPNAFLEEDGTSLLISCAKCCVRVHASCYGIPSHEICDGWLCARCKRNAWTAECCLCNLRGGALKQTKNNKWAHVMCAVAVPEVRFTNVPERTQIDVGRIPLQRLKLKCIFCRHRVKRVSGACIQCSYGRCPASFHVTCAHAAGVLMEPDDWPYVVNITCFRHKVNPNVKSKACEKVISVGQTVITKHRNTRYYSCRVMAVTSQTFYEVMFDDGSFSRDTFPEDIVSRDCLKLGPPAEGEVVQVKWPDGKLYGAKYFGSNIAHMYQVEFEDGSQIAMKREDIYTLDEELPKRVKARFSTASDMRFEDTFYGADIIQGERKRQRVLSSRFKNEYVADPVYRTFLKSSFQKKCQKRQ

[8] = molecular target: T5, Lysine-specific demethylase 4D (Homo sapiens, UniProt Q6B0I6); experiment: Inhibition of human KDM4D measured by AlphaLISA assay
T5 sequence (Q6B0I6 whole entry): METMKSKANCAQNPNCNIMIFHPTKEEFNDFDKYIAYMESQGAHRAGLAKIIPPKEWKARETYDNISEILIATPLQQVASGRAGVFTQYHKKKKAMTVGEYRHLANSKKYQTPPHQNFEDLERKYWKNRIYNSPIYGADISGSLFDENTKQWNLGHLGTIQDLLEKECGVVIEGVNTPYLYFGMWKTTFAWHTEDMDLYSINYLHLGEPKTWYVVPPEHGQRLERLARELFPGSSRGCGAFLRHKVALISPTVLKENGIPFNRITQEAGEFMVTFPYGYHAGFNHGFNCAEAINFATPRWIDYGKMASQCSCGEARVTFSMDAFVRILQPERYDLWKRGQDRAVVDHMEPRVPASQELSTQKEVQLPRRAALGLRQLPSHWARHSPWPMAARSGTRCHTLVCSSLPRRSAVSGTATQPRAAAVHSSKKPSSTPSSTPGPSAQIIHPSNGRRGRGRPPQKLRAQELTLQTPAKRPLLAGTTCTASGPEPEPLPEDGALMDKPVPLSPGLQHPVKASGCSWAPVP

`CN(C)c1ccc(/C=C/c2cc[n+](Cc3ccc(F)cc3)cc2)cc1` showed an IC50 [1] of 0.28 µM, a Ki [2] of 0.42 µM and an IC50 [3] of 0.28 µM.

`CN(C)CCCNC(=O)c1ccc(-c2cc(O)c3ncccc3c2)cc1` gave a Papp [4] of 12.5 ×10⁻⁶ cm/s.

`CN(C)C[C@H]1[C@H]2CC[C@](c3ccccc3)(C2)[C@H]1O` showed an EC50 [5] of 105 µM.

Work on `O=C(O)c1cc(O)c(=O)c2c(O)c(O)cc(-c3ccccc3)c2c1` yielded an IC50 [6] of 24.4 µM, an IC50 [7] of 24.4 µM and an IC50 [8] of 24.4 µM.
